Test results: patent publication US8580746B2, “Amide linkage cyclic natriuretic peptide constructs” (Palatin Technologies, Inc., priority 2006, dated 2013)
Numbered stars: 1 amine (or outer) side, 2 acyl side, 3 side chain; on linkers, the order of the positions; unused ones are H or OH. Bridge positions count the residues as written; N and C are the ends. Square brackets hold non-standard residues; d marks the D form. Peptide text beside a SMILES is read from it. * marks the point of attachment. X1 = N=C(N)NCCC[C@H]1C(=O)N[C@@H](C(N)=O)CN1*; Glutaryl = O=C(CCCC(=O)[*:2])[*:1]; Suc = O=C(CCC(=O)[*:2])[*:1]; dNle = CCCC[C@@H](N)C(=O)O; Heptanoyl = CCCCCCC(=O)*; Nle = CCCC[C@H](N)C(=O)O; Orn = NCCC[C@H](N)C(=O)O; Dab = NCC[C@H](N)C(=O)O; Dap = NC[C@H](N)C(=O)O

How the values were obtained:
[1] = molecular target: T1, hNPR-A (Homo sapiens, UniProt P16066); assay: Accumulation of intracellular cGMP in HEK-293 cells that express recombinant hNPR-A; assay type: cell-based; conditions: HEK-hNPRA cells
T1 sequence (P16066 33-1061): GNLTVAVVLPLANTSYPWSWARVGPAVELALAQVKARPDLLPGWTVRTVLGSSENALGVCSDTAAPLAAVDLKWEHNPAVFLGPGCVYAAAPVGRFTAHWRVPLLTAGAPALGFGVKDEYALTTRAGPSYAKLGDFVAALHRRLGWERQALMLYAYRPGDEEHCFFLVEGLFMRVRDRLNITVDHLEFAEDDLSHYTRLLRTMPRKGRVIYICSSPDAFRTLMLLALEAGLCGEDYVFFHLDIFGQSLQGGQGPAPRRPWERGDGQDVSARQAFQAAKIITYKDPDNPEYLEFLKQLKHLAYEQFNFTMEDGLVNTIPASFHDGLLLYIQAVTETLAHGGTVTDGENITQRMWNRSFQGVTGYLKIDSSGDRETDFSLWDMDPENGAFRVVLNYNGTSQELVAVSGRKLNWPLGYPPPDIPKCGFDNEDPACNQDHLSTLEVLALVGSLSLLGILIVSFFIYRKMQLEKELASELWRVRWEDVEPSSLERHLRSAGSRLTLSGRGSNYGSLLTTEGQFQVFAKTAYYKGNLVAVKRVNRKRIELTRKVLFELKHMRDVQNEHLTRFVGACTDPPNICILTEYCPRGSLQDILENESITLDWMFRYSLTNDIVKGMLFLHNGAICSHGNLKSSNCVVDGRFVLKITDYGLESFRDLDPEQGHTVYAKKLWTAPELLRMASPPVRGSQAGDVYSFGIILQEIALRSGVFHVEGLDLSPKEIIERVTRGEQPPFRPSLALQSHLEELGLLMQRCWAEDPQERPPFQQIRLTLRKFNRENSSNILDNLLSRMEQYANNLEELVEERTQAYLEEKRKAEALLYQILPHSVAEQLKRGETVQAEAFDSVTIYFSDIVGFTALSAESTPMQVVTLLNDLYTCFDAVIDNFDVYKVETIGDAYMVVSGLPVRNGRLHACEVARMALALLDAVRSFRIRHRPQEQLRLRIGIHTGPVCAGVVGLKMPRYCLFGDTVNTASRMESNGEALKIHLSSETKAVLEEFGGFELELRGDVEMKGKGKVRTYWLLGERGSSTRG
Excerpt: (§1) A cDNA clone that encodes for human natriuratic peptide receptor A (NPRA) was purchased from Bio S&T Inc. (Montreal, Quebec). The cDNA clone was inserted into the mammalian expression vector pcDNA3.1 (Invitrogen) and transfected into HEK-293 cells. Stable clones were selected by culture of cells in the presence of G418 sulfate. Expression of NPRA was examined by binding of [^125I]-atrial natriuretic peptide ([^125I]-ANP) to membrane homogenates prepared from clonal cell lines. HEK-hNPRA cells were maintained in culture at 37° C. in 5% CO2 in Dulbecco's Modified Eagle's Medium (DMEM) supplemented with 10% FBS, G418 sulfate (300 μg/mL) sodium glutamate (0.29 mg/mL), penicillin (100 units/mL) and streptomycin (100 ug/mL).
Functional evaluation of constructs was performed by measuring the accumulation of intracellular cGMP in HEK-293 cells that express recombinant hNPR-A. HEK-NPRA cells were harvested by washing and centrifugation in Cell Dissociation Buffer (Gibco, Life Technologies). Pelleted cells were resuspended in Hank's Balanced Salt Solution (HBSS) containing 10 mM Hepes (pH 7.4), 5 mM MgCl2, […], 1 mM 1,10-phenanthroline and BSA (0.5 mg/mL). Following centrifugation, cells were resuspended in the above buffer supplemented with 0.5 mM 3-isobutyl-1-methylxanthine (IBMX). Cells (˜2×10^5/well) were added to each well of a 96-well plate and incubated for 15 minutes at 37° C. Following the pre-incubation period, cells were incubated for an additional 15 minutes in the presence of increasing concentrations of constructs. The reaction was terminated by lysis of the cells with temperature shock. The reaction plate was incubated in a dry ice/ethanol bath for 15 minutes followed by incubation at 90° C. for 10 minutes. Accumulation of cGMP was measured using the cGMP Flashplate RIA (Perkin-Elmer). Data analysis and EC50 values were determined by using nonlinear regression analysis with GraphPad Prism® software.

[2] = molecular target: T2, human natriuratic peptide receptor A (NPRA) (Homo sapiens, UniProt P16066); assay: Competitive inhibition binding assay, [125I]-ANP, membrane homogenates from HEK-hNPRA cells; conditions: for Ki: [125I]-ANP competition, HEK-hNPRA membranes; for Percent Inhibition: inhibition of [125I]-ANP binding to HEK-hNPRA membranes, construct concentration not stated
T2 sequence (P16066 33-1061): T1 sequence (P16066 33-1061)
Excerpt: as §1
A competitive inhibition binding assay was performed using crude membrane homogenates prepared from HEK-hNPRA cells. To prepare membrane homogenates, cells were rinsed with phosphate-buffered saline and incubated for 15 minutes at 4° C. in hypotonic lysis buffer (10 mM Tris, pH 7.4+5 mM EDTA). Cells were transferred from plates to polypropylene tubes and homogenized. Homogenates were centrifuged at 25,000×g for 20 minutes. Pellets were resuspended in buffer consisting of 50 mM Tris (pH 7.4) and 1 mM EDTA, homogenized and centrifuged at 25,000×g for 20 minutes. Pellets were resuspended in buffer consisting of 100 mM Tris (pH 7.4) and 10 mM MgCl2 and stored at −80° C. until needed. On the day of an assay, homogenates were thawed and homogenized. Binding of [^125I]-ANP was carried out in buffer containing 25 mM Hepes (pH 7.4), 100 mM NaCl, 2 mM CaCl2, 5 mM MgCl2, 0.1% BSA and 1 mM 1,10-phenanthroline. Homogenates (1-10 μg protein/well) were incubated with [^125I]-ANP (25-30 pM) and increasing concentrations of competing ligands in Millipore filter plates for 120 minutes at 4° C. Assays were stopped by addition of cold wash buffer (phosphate-buffered saline) followed by filtration using a vacuum manifold. Bound radioactivity was determined using a gamma counter. Non-specific binding was defined by binding of [I^125]-hANP to non-transfected HEK293 membranes. Data were analyzed using GraphPad Prism® curve-fitting software.

[3] = in vivo
Procedure: (§2) In other tests, resistance to degradation by a 50 μM concentration of human neutral endopeptidase was determined for selected constructs.

[4] = Resistance to degradation by human neutral endopeptidase; assay type: in vitro ADME; conditions: isolated enzyme neprilysin; 50 μM concentration of human neutral endopeptidase; two hours; read-out: percent of construct remained after incubation for two hours
Procedure: as §2

[5] = system: neutral endopeptidase; assay: as above; assay type: in vitro ADME; conditions: human neutral endopeptidase (isolated enzyme); 50 μM concentration of human neutral endopeptidase; two hours; read-out: percent of construct remained after incubation for two hours
Procedure: as §2

EC50 [1] [nM]	Ki [2] [nM]	half-life [3] [min]	Percent Inhibition [2] [%]	remaining at 2 h [4] [%]	remaining at 2 h [5] [%]	Structure (SMILES)
0.25	0.6	6.6				CCCC[C@H]1NC(=O)[C@H](CCCNC(=N)N)NC(=O)CNC(=O)CNC(=O)[C@H](Cc2ccccc2)NC(=O)[C@H](Cc2c[nH]cn2)NC(=O)[C@@H](NC(=O)[C@@H](C)N)CC(=O)NCC[C@@H](C(=O)N[C@@H](Cc2ccc(O)cc2)C(=O)N2C[C@H](C(N)=O)NC(=O)[C@@H]2CCCNC(=N)N)NC(=O)[C@H](CO)NC(=O)[C@H]([C@@H](C)CC)NC(=O)[C@H](CCCNC(=N)N)NC(=O)[C@H](CC(=O)O)NC1=O [4-98] (H-[dA]DHFGGR[dNle]DRIS[Dab]Y-X1; lactam 2-13)
5			98	97		CCCCCCC(=O)NCC[C@@H]1NC(=O)CC[C@@H](C(=O)N[C@@H](Cc2ccc(O)cc2)C(=O)N2C[C@H](C(N)=O)NC(=O)[C@@H]2CCCNC(=N)N)NC(=O)[C@H](CO)NC(=O)[C@H]([C@@H](C)CC)NC(=O)[C@H](CCCNC(=N)N)NC(=O)[C@H](CC(=O)O)NC(=O)[C@@H](CCCC)NC(=O)[C@H](CCCNC(=N)N)NC(=O)CNC(=O)[C@@H](C)NC(=O)[C@H](Cc2ccccc2)NC(=O)[C@H](Cc2c[nH]cn2)NC1=O [3-75] ([Dab](Heptanoyl)HF[dA]GR[dNle]DRISEY-X1; lactam N-12)
0.7			100			CCCCCCC(=O)N[C@H]1CNC(=O)CCC(=O)NC[C@@H](C(=O)N[C@@H](Cc2ccc(O)cc2)C(=O)N2C[C@H](C(N)=O)NC(=O)[C@@H]2CCCNC(=N)N)NC(=O)[C@H](CO)NC(=O)[C@H]([C@@H](C)CC)NC(=O)[C@H](CCCNC(=N)N)NC(=O)[C@H](CC(=O)O)NC(=O)[C@H](CCCC)NC(=O)[C@H](CCCNC(=N)N)NC(=O)CNC(=O)[C@@H](C)NC(=O)[C@H](Cc2ccccc2)NC(=O)[C@@H](Cc2c[nH]cn2)NC1=O [1-37] (Heptanoyl-[Dap][dH]F[dA]GR[Nle]DRIS[Dap]Y-X1; linker 1-12 via Suc)
10			68			CCCCCCC(=O)N[C@H]1CNC(=O)CCCC(=O)NCCC[C@@H](C(=O)N[C@@H](Cc2ccc(O)cc2)C(=O)N2C[C@H](C(N)=O)NC(=O)[C@@H]2CCCNC(=N)N)NC(=O)[C@H](CO)NC(=O)[C@H]([C@@H](C)CC)NC(=O)[C@H](CCCNC(=N)N)NC(=O)[C@H](CC(=O)O)NC(=O)[C@H](CCCC)NC(=O)[C@H](CCCNC(=N)N)NC(=O)CNC(=O)[C@@H](C)NC(=O)[C@H](Cc2ccccc2)NC(=O)[C@@H](Cc2c[nH]cn2)NC1=O [1-31] (Heptanoyl-[Dap][dH]F[dA]GR[Nle]DRIS[Orn]Y-X1; linker 1-12 via Glutaryl)
0.25			78			CCCCCCC(=O)N[C@H]1CC(=O)NCC[C@@H](C(=O)N[C@@H](Cc2ccc(O)cc2)C(=O)N2C[C@H](C(N)=O)NC(=O)[C@@H]2CCCNC(=N)N)NC(=O)[C@H](CO)NC(=O)[C@H]([C@@H](C)CC)NC(=O)[C@H](CCCNC(=N)N)NC(=O)[C@H](CC(=O)O)NC(=O)[C@H](CCCC)NC(=O)[C@H](CCCNC(=N)N)NC(=O)CNC(=O)CNC(=O)[C@H](Cc2ccccc2)NC(=O)[C@H](Cc2c[nH]cn2)NC1=O [4-137] (Heptanoyl-DHFGGR[Nle]DRIS[Dab]Y-X1; lactam 1-12)
10			93		84	CCCCCCC(=O)NC[C@@H]1NC(=O)CC[C@@H](C(=O)N[C@@H](Cc2ccc(O)cc2)C(=O)N2C[C@H](C(N)=O)NC(=O)[C@@H]2CCCNC(=N)N)NC(=O)[C@H](CO)NC(=O)[C@H]([C@@H](C)CC)NC(=O)[C@H](CCCNC(=N)N)NC(=O)[C@H](CC(=O)O)NC(=O)[C@@H](CCCC)NC(=O)[C@H](CCCNC(=N)N)NC(=O)CNC(=O)[C@@H](C)NC(=O)[C@H](Cc2ccccc2)NC(=O)[C@H](Cc2c[nH]cn2)NC1=O [3-76] ([Dap](Heptanoyl)HF[dA]GR[dNle]DRISEY-X1; lactam N-12)
4			100	89		CCCCCCC(=O)N[C@H]1CC(=O)NCC[C@@H](C(=O)N[C@@H](Cc2ccc(O)cc2)C(=O)N2C[C@H](C(N)=O)NC(=O)[C@@H]2CCCNC(=N)N)NC(=O)[C@H](CO)NC(=O)[C@H]([C@@H](C)CC)NC(=O)[C@H](CCCNC(=N)N)NC(=O)[C@H](CC(=O)O)NC(=O)[C@@H](CCCC)NC(=O)[C@H](CCCNC(=N)N)NC(=O)CNC(=O)[C@@H](C)NC(=O)[C@H](Cc2ccccc2)NC(=O)[C@H](Cc2c[nH]cn2)NC1=O [4-138] (Heptanoyl-DHF[dA]GR[dNle]DRIS[Dab]Y-X1; lactam 1-12)
11	40			95		CCCC[C@H]1NC(=O)[C@H](CCCNC(=N)N)NC(=O)CNC(=O)[C@@H](C)NC(=O)[C@H](Cc2ccccc2)NC(=O)[C@H](Cc2c[nH]cn2)NC(=O)[C@@H](NC(=O)[C@@H](C)N)CCC(=O)NCC[C@@H](C(=O)N[C@@H](Cc2ccc(O)cc2)C(=O)N2C[C@H](C(N)=O)NC(=O)[C@@H]2CCCNC(=N)N)NC(=O)[C@H](CO)NC(=O)[C@H]([C@@H](C)CC)NC(=O)[C@H](CCCNC(=N)N)NC(=O)[C@H](CC(=O)O)NC1=O [4-90] (H-[dA]EHF[dA]GR[dNle]DRIS[Dab]Y-X1; lactam 2-13)
0.2			69			CCCC[C@@H]1NC(=O)[C@H](CCCNC(=N)N)NC(=O)CNC(=O)CNC(=O)[C@H](Cc2ccccc2)NC(=O)[C@H](Cc2c[nH]cn2)NC(=O)[C@@H](N)CC(=O)NCC[C@@H](C(=O)N[C@@H](Cc2ccc(O)cc2)C(=O)N2C[C@H](C(N)=O)NC(=O)[C@@H]2CCCNC(=N)N)NC(=O)[C@H](CO)NC(=O)[C@H]([C@@H](C)CC)NC(=O)[C@H](CCCNC(=N)N)NC(=O)[C@H](CC(=O)O)NC1=O [4-143] (H-DHFGGR[Nle]DRIS[Dab]Y-X1; lactam 1-12)
